In patent US6465447B1, “Substance having steroid-like structure, process for the production thereof and antitumor agents containing the same” (Hisamitsu Pharmaceuticals Co., Inc., priority 1998, dated 2002):

Columns and labels:
HeLa cells [1] = assay: DNA cleavage examined against HeLa cells (chromatin aggregation, agarose gel electrophoresis); format: cell-based, human; details: conclusion from FIGS. 7-9
Experimental: HeLa cells were prepared, adjusted to a cell density of 1×10^6 cells/ml in a φ10 cm culture dish and grown, into which 200 μl of the active fraction solution was dropped. Cells were harvested each 50 μl after 24, 48, and 72 hrs, and incubated in 400 μl of culture solution (containing Tris-EDTA, SDS and Proteinase K) in a 5% CO2 atmosphere at 37° C. overnight. NaCl was added to the cells and decomposed proteins were centrifuged; and the supernatant was precipitated in ethanol.
The precipitate was suspended in Tris-EDTA buffer containing RnaseA. After 2 hrs, it was loaded onto agarose gel. After staining with ethidium bromide, it was electrophoresed and visualized under UV irradiation.

HeLa cells [2] = assay: Tumor cell proliferation inhibitory activity, Alarmer Blue staining, HeLa cells; format: cell-based, human; details: conclusion from FIGS. 4-6 (Vero, HeLa, fibroblasts)
Experimental: Here, Vero was […] derived from the kidney of a grivet, and HeLa was a tumor cell line derived from human cervix.
These cells were grown in FCS-MRM medium. The respective cells were trypsinized and washed with a FCS-free RPMI culture medium three times. The cell density was adjusted to 50,000 cells/ml prior to the test. Each 200 μl of cell suspension was dropped into a 96-well plain-bottom plate.
After one day, the culture medium was aspirated; and 200 μl of an active component solution was dropped into test wells, and 200 μl of DMSO dropped into control wells. The plate was incubated in a 5% CO2 atmosphere at 37° C. for 3 days. Ten μl of Alarmer Blue (staining agent) was added to each well, and incubation continued for additional 3 hrs. The tumor cell proliferation inhibitory activity was determined spectrophotometrically (570 and 600 nm) according to the following equation:
Eq. Proliferation inhibitory activity=100%−[(absorbance of test well)/(absorbance of control well)×100%]

CC(=O)OC1CC2(C)C(C(C)/C=C/C(C)C(C)C)CCC2(C)C2CC(O)C3(O)CC(O)CC(=O)C3(C)C12 (centres unmarked) [compound (II)]
induction of apoptosis in the tumor cells (HeLa cells [1]): induces apotosis
proliferation inhibitory activity specific to tumor cells (overall conclusion) (HeLa cells [2]): remarkable proliferation inhibitory activity specific to tumor cells
